Experimental data reported in patent US20070015771A1, “Lonidamine analogs” (Threshold pharmaceuticals, Inc., priority 2004, published 2007).
Read-outs that look alike come from different tables or passages of the source.

Columns and labels:
PWR-1E cells = test: Antiproliferation assay, PWR-1E cells (Example 48); assay type: cell-based; conditions: read-out: IC50 PWR-1E cell
Experimental: (§1) To determine the effect of lonidamine and analogs thereof on cell proliferation, the antiproliferative activity of these compounds was tested in a multi-well Alamar Blue based assay (at 2 h and 3 days). Cell growth in the presence and absence of the test compound (compounds 1-22) was compared, as measured by a fluorescence plate reader at excitation 550 nm and emission 590 nm (see Biosource International Inc., Tech Application Notes, Use of Alamar Blue in the measurement of Cell Viability and Toxicity, Determining IC50). H460 cells (ATCC HTB-177 ([…]), 4,000 cells/well/200 μl) and LNCap cells (ATCC CRL-1740, 6,000 cells/well/200 μl) were seeded in a 96 well plate in RPMI medium (Invitrogen Corporation, Carlsbad, Calif.). After 24 hours, these plates were divided into 3 groups—Control group, 2 h treatment group and 3 day treatment group. In the 2 h treatment group, after 2 h the cells were rinsed to remove the test compound and incubated for 3 days, followed by staining with AlamarBlue. The cells in the 3 day treatment group were incubated for 3 days, followed by staining with AlamarBlue. In the Control group, AlamarBlue was added to the plate at (i) day 0 and (ii) day 3 and measured to establish the control reading.
The effect of lonidamine and analogs thereof on cell proliferation in PWR-1E cells (ATCC CRL-11611) was determined in an antiproliferative assay using PWR-1E cells (5000 cells/well) in Keratinocyte SFM medium (Gibco Products, Invitrogen Corporation, Carlsbad, Calif.) according to the procedure detailed in Example 47 above.

DU-145 cells = test: Antiproliferation assay 3 days, DU-145 cells; assay type: cell-based; conditions: 3 day treatment; read-out: Du-145 cell line IC50
Experimental: (§2) To determine the effect of lonidamine analogs thereof on cell proliferation, the antiproliferative activity of these compounds was tested in a multi-well Alamar Blue based assay (at 3 days). Cell growth in the presence and absence of the test compound was compared, as measured by a fluoresence plate reader at excitation 550 nm and emission 590 nm (see Biosource International Inc., Tech Application Notes, Use of Alamar Blue in the measurement of Cell Viability and Toxity, Determining IC50). The following cell lines were tested: PWR-1E cells ((ATCC CRL-11611), 3500 cells/well/200 μl in Keratinocyte SFM medium (Gibco Products, Invitrogen Corporation, Carlsbad, Calif.)); DU-145 cells ((ATCC HTB-81), 4000 cells/well/200 μl in MEM Eagles medium (ATCC, Manassas, Va.)); PC3 cells ((ATCC CRL-1435), 4000 cells/200 μl in Modified HAM's F12 medium (ATCC, Manassas, Va.)); PNt2 cells ((Sigma-Aldrich, 95012613-1 VL), 4000 cells/well/200 μl in RPMI medium (Gibco Products, Invitrogen Corporation, Carlsbad, Calif.), BPH-1 ((DSMZ ACC-143), 4000 cells/well/200 μl in RPMI medium (Gibco Products, Invitrogen Corporation, Carlsbad, Calif), and NCI-H460 cells ((ATCC HTB-177), 4000 cells/well/200 μl in RPMI medium (Gibco Products, Invitrogen Corporation, Carlsbad, Calif.)). The cells were seeded in a 96 well plate in a medium specified above. After 24 hours, these plates were divided into 2 groups—Control group and 3 day treatment group. A test compound was added to each plate in the treatment groups at concentrations of […] as tabulated in Table 1 (in 2 μl 1 of 100% DMSO, final DMSO concentration 1% in all wells). For NCI-H460 cells, test compounds were added to each plate in the treatment groups at concentrations of 600, 300, 100, 30, 10, 3, and 1 μM (in 2 μl of 100% DMSO, final DMSO concentration 1% in all wells). The cells in the 3 day treatment group were incubated for 3 days, followed by staining with AlamarBlue. In the Control group, AlamarBlue was added to the plate at (i) day 0 and (ii) day 3 and measured to establish the control reading. […] For the NCI-H460 cells, the capacity of the cells to proliferate was measured 5 hours after addition of AlamarBlue using the same fluorescence plate reader as stated above.

LNCaP cells [1] = test: Antiproliferation assay (Alamar Blue), LNCaP cells; assay type: cell-based, human; conditions: 3 day treatment, read-out: GI50 LNCaP cell 3days
Experimental: as §1

H460 cells = test: Antiproliferation assay (Alamar Blue), H460 cells; assay type: cell-based
Experimental: as §1

LNCaP cells [2] = test: Cell cycle analysis; assay type: cell-based, human; conditions: for % G0/G / % G2/M / % S: 24 h
Experimental: The effect of compound 1 (as described in Example 1 above) on the cell cycle was determined as follows. LNCaP cells (2×10^5 cells/ml/well) were seeded in a 24 well plate. The culture media were removed after 24 h, the cells were trypsinized and centrifuged. The cell pellets were resuspended in 100 μl PBS buffer, after which 300 μl of ice-cold ethanol (96%) added dropwise, and the cells were incubated at 4° C. for at least 24 hr. The cells were centrifuged and the supernatant was discarded. The cell cycle staining reagent (Guava Technologies, Hayward, Calif., USA, 200 μl) was added to each well. The cells were shielded from light and incubated at room temperature for 30 min. The samples were analyzed (Guava PCA-96 instrument, Cytosoft software, Guava Technologies, 25801 Industrial Boulevard, Hayward Calif. 94545-2991, USA) as tabulated below.

PC3 cells = test: Antiproliferation assay 3 days, PC3 cells; assay type: cell-based, human; conditions: 3 day treatment; read-out: PC-3 cell line IC50
Experimental: as §2

## O=C(NO)c1nn(Cc2ccc(Cl)cc2Cl)c2ccccc12 [Compound 1]
PWR-1E cells
  IC50: 4 µM
DU-145 cells
  IC50: 11 µM
LNCaP cells [1]
  GI50: 40 µM
H460 cells; 3 day treatment, read-out: GI50 H460 cell 3 days
  GI50: 15.8 µM
H460 cells; read-out: GI50 H460 cell 2 hr, 2 h treatment then 3 days incubation
  GI50: 50 µM
LNCaP cells [2]; 2.5-200 μM
  effect on the cell cycle: does not have a measurable effect
LNCaP cells [2]; 2.5 μM
  % G0/G: 59%
  % G2/M: 27%
  % S: 11%
LNCaP cells [2]; 7.4 μM
  % G0/G: 56%
  % G2/M: 26%
  % S: 15%
LNCaP cells [2]; 22.2 μM
  % G0/G: 57%
  % G2/M: 25%
  % S: 11%
LNCaP cells [2]; 66.7 μM
  % G0/G: 51%
  % G2/M: 24%
  % S: 19%
LNCaP cells [2]; 200 μM
  % G0/G: 41%
  % G2/M: 17%
  % S: 18%
PC3 cells
  IC50: 15 µM
